Source: patent publication US20150342954A1, “2-BENZYL, 3-(PYRIMIDIN-2-YL) SUBSTITUTED PYRAZOLES USEFUL AS SGC STIMULATORS” (IRONWOOD PHARMACEUTICALS, INC., priority 2011, published 2015)
Like-named read-outs stand apart in the source and are kept apart here.

What was measured:
[1] = target: T1, Human soluble guanylate cyclase enzyme (hsGC) (Homo sapiens, UniProt Q02108+Q02153); assay: Purified human sGC enzyme synergy assay in the presence of 1 μM sodium nitroprusside (SNP); format: biochemical; conditions: compound at 30 μM, presence of 1 μM SNP; Table 5A
T1 construct: purchased Enzo Inc. ALX-201-177
T1 sequence (Q02153 1-619): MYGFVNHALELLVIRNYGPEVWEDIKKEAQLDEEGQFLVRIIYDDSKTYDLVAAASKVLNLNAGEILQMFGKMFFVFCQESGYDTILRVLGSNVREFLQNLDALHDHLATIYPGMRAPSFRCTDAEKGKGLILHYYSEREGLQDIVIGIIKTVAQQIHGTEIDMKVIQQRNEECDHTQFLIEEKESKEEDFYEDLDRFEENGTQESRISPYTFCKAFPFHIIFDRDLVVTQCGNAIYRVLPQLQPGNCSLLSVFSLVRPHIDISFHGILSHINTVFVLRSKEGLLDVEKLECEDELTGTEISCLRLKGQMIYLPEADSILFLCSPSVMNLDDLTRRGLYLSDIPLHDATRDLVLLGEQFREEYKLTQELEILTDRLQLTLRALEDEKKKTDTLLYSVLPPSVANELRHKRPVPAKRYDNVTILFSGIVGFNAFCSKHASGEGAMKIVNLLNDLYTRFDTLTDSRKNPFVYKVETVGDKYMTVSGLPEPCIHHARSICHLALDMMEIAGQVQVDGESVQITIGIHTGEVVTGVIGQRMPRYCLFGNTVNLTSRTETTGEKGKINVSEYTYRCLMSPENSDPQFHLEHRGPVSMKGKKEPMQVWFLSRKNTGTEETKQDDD
T1 sequence (Q02108 1-690): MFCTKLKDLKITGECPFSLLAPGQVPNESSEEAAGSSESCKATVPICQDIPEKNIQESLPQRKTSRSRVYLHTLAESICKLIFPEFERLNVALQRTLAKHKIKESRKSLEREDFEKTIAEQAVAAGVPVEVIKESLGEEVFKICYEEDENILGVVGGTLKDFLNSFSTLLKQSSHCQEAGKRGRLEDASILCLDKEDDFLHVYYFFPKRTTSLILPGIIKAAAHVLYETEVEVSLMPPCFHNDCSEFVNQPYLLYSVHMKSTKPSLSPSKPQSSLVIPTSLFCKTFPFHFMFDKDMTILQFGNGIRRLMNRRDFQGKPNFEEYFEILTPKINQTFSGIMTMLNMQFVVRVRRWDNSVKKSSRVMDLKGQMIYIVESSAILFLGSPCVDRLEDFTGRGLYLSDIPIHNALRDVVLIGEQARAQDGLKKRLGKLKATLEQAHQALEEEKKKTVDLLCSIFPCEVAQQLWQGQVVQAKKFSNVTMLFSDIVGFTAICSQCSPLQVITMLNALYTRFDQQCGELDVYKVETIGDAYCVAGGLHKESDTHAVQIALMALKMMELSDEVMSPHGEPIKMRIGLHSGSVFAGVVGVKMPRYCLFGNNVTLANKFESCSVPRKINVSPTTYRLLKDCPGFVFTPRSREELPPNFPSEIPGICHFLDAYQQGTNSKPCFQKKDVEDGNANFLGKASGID
Experimental: (§1) Human soluble guanylate cyclase enzyme (hsGC) obtained from Enzo Inc. (P/N: ALX-201-177) was used to evaluate the activity of test compounds. The assay reactions contained 0.1 M Tris (pH 8.0), 0.5 mg/mL BSA (pH 8.0), 2 mM DTT, 2 mM MgCl2, 300 μM GTP, 1 mM 3-isobutyl-1-methylxanthine (IBMX) and 5 ng human soluble guanylate cyclase enzyme. Test compounds in DMSO were then added (2 μL, 10 or 30 μM final concentration) and incubated (200 μL, 96-well plate format) at 37° C. for 30 minutes. The controls were carried out using 2 μL DMSO. After the 30 minute incubation, the reaction was stopped with the addition of 200 μl of cold methanol. The plate was then centrifuged at 3,200 rpm for 10 minutes at room temperature. Supernatants (200 μL) were collected and transferred to a new 96 well plate for analysis.
(§2) An 8 point cGMP (Sigma-Aldrich P/N: G6129) standard curve was prepared in assay buffer ranging from 0.156-20 μM. Samples for the cGMP standard curve were then diluted with an equal volume of methanol resulting in final cGMP concentrations of 0.078-10 μM.
(§3) The cGMP standard curve was generated using GraphPad Prism Software.
(§4) Calculations: Specific Activity was determined by the amount of cGMP formed (nmoles) per mg of sGC per min. Enzyme “fold-change” was calculated by dividing Specific Activity for test compounds by Specific Activity of DMSO controls.
Biological Measurement by the Purified Human sGC Enzyme Synergy Performed in the Presence of Sodium Nitroprusside (SNP), a Nitric Oxide Donor
Enzyme assays were performed as described above, but was done in the absence or presence of 1 μM sodium nitroprusside (SNP).

[2] = target: T1, Human soluble guanylate cyclase enzyme (hsGC); assay: Purified human sGC enzyme activity assay (without SNP); format: biochemical; conditions: compound at 30 μM, absence of SNP; fold over DMSO control; Table 5A
Experimental: Biological Activity Measurements by the Purified Human sGC Enzyme Activity Assay
as §1, §2, §3, §4

[3] = target: T2, soluble guanylate cyclase (sGC) (Homo sapiens, UniProt Q02108+Q02153); assay: sGC-HEK-cGMP assay (run with SNP incubation); format: cell-based; conditions: for Emax: 10 μM SNP, 100% = 30 μM BAY 41-2272 with 10 μM SNP, read-out: HEK assay Emax-unconstrained (Percent); for HEK MEC-10: concentration that would elicit 10% of the Emax in the presence of 10 μM SNP; for EC50: in the presence of 10 μM SNP
T2 construct: endogenously expressing soluble guanylate cyclase (sGC); endogenous in cells; host or cells: HEK293
T2 sequence (Q02153 1-619): T1 sequence (Q02153 1-619)
T2 sequence (Q02108 1-690): T1 sequence (Q02108 1-690)
Experimental: Biological Activity Measurement by the sGC-HEK-cGMP Assay
(Assay Run with SNP Incubation)
Human embryonic kidney cells (HEK293), endogenously expressing soluble guanylate cyclase (sGC), were used to evaluate the activity of test compounds. Compounds stimulating the sGC receptor should cause an increase in the intracellular concentration of cGMP. HEK 293 cells were seeded in Dulbecco's Modification of Eagle's Medium supplemented with fetal bovine serum (10% final) and L-glutamine (2 mM final) in a 2004 volume at a density of 1×10^5 cells/well in a poly-D-lysine coated 96 well flat bottom plate and grown overnight at 37° C. Medium was aspirated and cells were washed with 1× Hank's Buffered Saline Salt Solution (2004). Cells were then incubated for 15 minutes at 37° C. with 0.5 mM 3-isobutyl-1-methylxanthine (2004). Test article and sodium nitroprusside were then added to the assay mixture (24 each) and incubated at 37° C. for 10 minutes. After the 10 minute incubation, the assay mixture was aspirated and 0.1M HCl (2004) was added to the cells. The plate was incubated at 4° C. for 30 minutes in the 0.1M HCl to stop the reaction and lysed the cells. The plates were then centrifuged at 1,200 g for 5 minutes at room temperature. Supernatants were collected and transferred to a new flat bottom 96 well plate for analysis. Vehicle controls were carried out using DMSO (1%). A known sGC stimulator, BAY 41-2272, was used as the positive control. Samples were diluted with an equal volume of 1 M Ammonium Acetate (pH 7) to neutralize samples for better chromatography. A 2×cGMP standard curve was prepared in 0.1 M HCl and then diluted with an equal volume of 1 M Ammonium Acetate, with the following final concentrations in nM: 1024, 512, 256, 128, 64, 32, 16, 8, 4, 2, 1.cGMP concentrations were determined from each sample using the LC/MS conditions (Table 2 below) and calculated standard curve. EC50 values were calculated from concentration-response curves generated with GraphPad Prism Software.

[4] = Table 3B, top of concentration-response curve not fitted to 100%
[5] = Table 3E, read-out: HEK assay EC50
[6] = top of concentration-response curve not fitted to 100%, Table 3E, read-out: HEK assay EC50-unconstrained
[7] = Table 3C, top of concentration-response curve not fitted to 100%
[8] = Table 3F, read-out: HEK assay EC50
[9] = top of concentration-response curve not fitted to 100%, Table 3F, read-out: HEK assay EC50-unconstrained

| Compound | Emax [3, 7] | HEK MEC-10 ([3]; Table 3F) | EC50 [3, 8] | EC50 [3, 9] | other results |
| --- | --- | --- | --- | --- | --- |
| O=c1[nH]c(-c2cc(-c3ccon3)n(Cc3ccncc3F)n2)ncc1F [Compound 26] |  |  |  |  | Enzyme Activity (increase at 30 μM with SNP) [1]: A (no increase to <2 fold increase); Enzyme Activity (increase at 30 μM without SNP) [2]: A (no increase to <2 fold increase) |
| COc1nc(-c2cc(-c3ccon3)n(Cc3ccccc3F)n2)ncc1F [Compound 28] |  |  |  |  | Enzyme Activity (increase at 30 μM with SNP) [1]: D (10 or <20 fold increase); Emax ([3]; Table 3A, top of concentration-response curve not fitted to 100%): 60 to 80%; HEK MEC-10 ([3]; Table 3D): B (0.01 to <0.1 μM); Enzyme Activity (increase at 30 μM without SNP) [2]: C (5 to <10 fold increase) |
| Fc1cccnc1Cn1nc(-c2ncccn2)cc1-c1ccon1 [Compound 57] |  |  |  |  | Enzyme Activity (increase at 30 μM with SNP) [1]: A (no increase to <2 fold increase); Enzyme Activity (increase at 30 μM without SNP) [2]: A (no increase to <2 fold increase) |
| Fc1ncccc1Cn1nc(-c2ncccn2)cc1-c1ccon1 [Compound 66] |  |  |  |  | Enzyme Activity (increase at 30 μM with SNP) [1]: A (no increase to <2 fold increase); Enzyme Activity (increase at 30 μM without SNP) [2]: A (no increase to <2 fold increase) |
| Oc1nc(-c2cc(-c3ccon3)n(Cc3cccc(Cl)c3F)n2)ncc1Cl [Compound 82] |  |  |  |  | Emax [3, 4]: 40 to 60%; HEK MEC-10 ([3]; Table 3E): B (0.01 to <0.1 μM); EC50 [3, 5]: 40 to 60 µM; EC50 [3, 6]: 0.01 to 0.5 µM |
| Nc1nc(-c2cc(-c3ccon3)n(Cc3ccccc3F)n2)ncc1N1CC(C(F)(F)F)OC1=O (stereo not shown) [Compound 83, 3-(4-amino-2-(1-(2-fluorobenzyl)-5-(isoxazol-3-yl)-1H-pyrazol-3-yl)pyrimidin-5-yl)-5-(trifluoromethyl)oxazolidin-2-one] |  |  |  |  | EC50 [3, 5]: 60 to 100 µM; EC50 [3, 6]: 0.5 to 1 µM |
| Oc1nc(-c2cc(-c3ccco3)n(Cc3ccccc3F)n2)ncc1F [Compound 90] |  |  |  |  | Emax [3, 4]: 40 to 60%; EC50 [3, 6]: 0.01 to 0.5 µM |
| Nc1nc(-c2cc(-c3ccon3)n(Cc3ccccc3F)n2)ncc1NC(=O)C(Cl)(Cl)Cl [Compound 98] | 60 to 80% | B (0.01 to <0.1 μM) | < 20 µM | 0.01 to 0.5 µM |  |
| Nc1nc(-c2cc(-c3ccon3)n(Cc3cccc(F)c3F)n2)ncc1NC(=O)c1ccc(C(F)(F)F)cc1 [Compound 101] | 80 to 100% | A (0.001 to <0.01 μM) | < 20 µM | 0.01 to 0.5 µM |  |
| CN(C)Cc1ccc(C(=O)Nc2cnc(-c3cc(-c4ccon4)n(Cc4cccc(F)c4F)n3)nc2N)cc1 [Compound 102] | 60 to 80% | C (0.1 to <1 μM) | < 20 µM | 1 to 5 µM |  |
| Nc1nc(-c2cc(-c3ccon3)n(Cc3cccc(F)c3F)n2)ncc1NC(=O)c1ccc[nH]1 [Compound 103] | 80 to 100% | A (0.001 to <0.01 μM) | < 20 µM | 0.01 to 0.5 µM |  |
| CN(C)Cc1cccc(C(=O)Nc2cnc(-c3cc(-c4ccon4)n(Cc4cccc(F)c4F)n3)nc2N)c1 [Compound 104] | 40 to 60% | C (0.1 to <1 μM) | < 20 µM | 1 to 5 µM |  |
| Nc1nc(-c2cc(-c3ccon3)n(Cc3cccc(F)c3F)n2)ncc1NC(=O)c1cc[nH]c1 [Compound 105] | 60 to 80% | B (0.01 to <0.1 μM) | < 20 µM | 0.5 to 1 µM |  |
| Nc1nc(-c2cc(-c3ccon3)n(Cc3cccc(F)c3F)n2)ncc1NC(=O)c1ccn[nH]1 [Compound 106] | 80 to 100% | D (1 to <10 μM) | < 20 µM | 5 to 10 µM |  |
| Nc1nc(-c2cc(-c3ccon3)n(Cc3cccc(F)c3F)n2)ncc1NC(=O)C12CC3CC(CC(O)(C3)C1)C2 [Compound 107] | 40 to 60% | C (0.1 to <1 μM) | < 20 µM | 1 to 5 µM |  |
| Nc1nc(-c2cc(-c3ccon3)n(Cc3ccccc3F)n2)ncc1NC(=O)CCC(F)(F)F [Compound 111] | 60 to 80% | B (0.01 to <0.1 μM) | < 20 µM | 0.01 to 0.5 µM |  |
| N#Cc1nc(-c2cc(-c3ccon3)n(Cc3ccccc3F)n2)ncc1F [Compound 115] | 20 to 40% | D (1 to <10 μM) | 40 to 60 µM | 1 to 5 µM |  |
| COc1nc(-c2cc(-c3ccon3)n(Cc3ccccc3F)n2)nc(Cl)c1F [Compound 116] | 20 to 40% | D (1 to <10 μM) | 60 to 100 µM |  |  |
